According to the NIST ThermoML archive (doi:10.1016/j.tca.2014.11.009):
Numbers after ± are expanded uncertainties.

How the values were obtained:
[1] = 100 kPa, Liquid; for speed of sound: Frequency=3 MHz, Sing-around technique in a fixed-path interferometer; for mass density: Vibrating tube method
[2] = xn = mol fraction of the nth substance listed; conditions: 100 kPa, Liquid, x2 = 0; for speed of sound: Frequency=3 MHz, Sing-around technique in a fixed-path interferometer; for mass density: Vibrating tube method

SMILES | speed of sound ([1]; 283.15 K) | mass density ([1]; 283.15 K) | speed of sound ([1]; 293.15 K) | mass density ([1]; 293.15 K) | speed of sound ([1]; 303.15 K) | mass density ([1]; 303.15 K) | speed of sound ([1]; 313.15 K) | mass density ([1]; 313.15 K) | speed of sound ([2]; 283.15 K) | mass density ([2]; 283.15 K) | speed of sound ([2]; 293.15 K) | mass density ([2]; 293.15 K) | speed of sound ([2]; 303.15 K) | mass density ([2]; 303.15 K) | speed of sound ([2]; 313.15 K) | mass density ([2]; 313.15 K)
O=Cc1ccco1 [2-furaldehyde] | 1495.4 ± 1.6 m/s | 1169.93 ± 0.37 kg/m3 | 1458.8 ± 1.6 m/s | 1159.33 ± 0.36 kg/m3 | 1422.5 ± 1.6 m/s | 1148.69 ± 0.35 kg/m3 | 1386.5 ± 1.6 m/s | 1138.01 ± 0.34 kg/m3 |  |  |  |  |  |  |  | 
CCCCO [butan-1-ol] | 1291.4 ± 1.6 m/s | 817.21 ± 0.24 kg/m3 | 1257.5 ± 1.6 m/s | 809.65 ± 0.24 kg/m3 | 1223.6 ± 1.6 m/s | 802 ± 0.24 kg/m3 | 1190.2 ± 1.6 m/s | 794.21 ± 0.24 kg/m3 |  |  |  |  |  |  |  | 
CCCCO [butan-1-ol] + O=Cc1ccco1 |  |  |  |  |  |  |  |  | 1291.4 ± 1.6 m/s | 817.21 ± 0.24 kg/m3 | 1257.5 ± 1.6 m/s | 809.65 ± 0.24 kg/m3 | 1223.6 ± 1.6 m/s | 802 ± 0.24 kg/m3 | 1190.2 ± 1.6 m/s | 794.21 ± 0.24 kg/m3
CCC(C)O (stereo unspecified) [butan-2-ol] | 1268.4 ± 1.6 m/s | 815.39 ± 0.24 kg/m3 | 1232.4 ± 1.6 m/s | 807.34 ± 0.24 kg/m3 | 1196.1 ± 1.6 m/s | 798.99 ± 0.24 kg/m3 | 1159.5 ± 1.6 m/s | 790.28 ± 0.24 kg/m3 |  |  |  |  |  |  |  | 
CCC(C)O (stereo unspecified) [butan-2-ol] + O=Cc1ccco1 |  |  |  |  |  |  |  |  | 1268.4 ± 1.6 m/s | 815.39 ± 0.24 kg/m3 | 1232.4 ± 1.6 m/s | 807.34 ± 0.24 kg/m3 | 1196.1 ± 1.6 m/s | 798.99 ± 0.24 kg/m3 | 1159.5 ± 1.6 m/s | 790.28 ± 0.24 kg/m3
CCO [ethanol] | 1197.3 ± 1.6 m/s | 798.51 ± 0.24 kg/m3 | 1162.5 ± 1.6 m/s | 789.99 ± 0.24 kg/m3 | 1128.3 ± 1.6 m/s | 781.38 ± 0.24 kg/m3 | 1094.6 ± 1.6 m/s | 772.64 ± 0.24 kg/m3 |  |  |  |  |  |  |  | 
CCO [ethanol] + O=Cc1ccco1 |  |  |  |  |  |  |  |  | 1197.3 ± 1.6 m/s | 798.51 ± 0.24 kg/m3 | 1162.5 ± 1.6 m/s | 789.99 ± 0.24 kg/m3 | 1128.3 ± 1.6 m/s | 781.38 ± 0.24 kg/m3 | 1094.6 ± 1.6 m/s | 772.64 ± 0.24 kg/m3
